Measurements as given in patent publication US20190070174A1, “METHODS OF TREATING NEURODEGENERATIVE DISEASES” (priority 2016, published 2019).

Tests used:
[1] = test system: ATXN3Q55; assay: Native PAGE analysis at the end of the ThT assay; assay type: biochemical, human
[2] = test system: human ATXN3; assay: Subchronic treatment of Q84 mice, immunoblot of soluble lysates; assay type: in vivo; settings: 15 mg/kg IP daily for 10 days
Method: (§1) YACMJD84.2 transgenic mice were housed in cages with a maximum number of five animals and maintained in a standard 12-hour light/dark cycle with food and water ad libitum. Genotyping was performed using DNA isolated from tail biopsy at the time of weaning, and genotypes of all studied mice were confirmed using DNA extracted from tails collected post-mortem. […] Five hours after the final injection, mice were anesthetized with ketamine/xylazine and perfused transcardially with phosphate buffered saline (PBS) (for RNA and protein studies), and brains were immediately placed on dry ice and stored at −80° C.
(§2) Protein lysates from cell cultures, mouse brain slices or mouse brains were obtained by lysis in RIPA buffer containing protease inhibitors (Complete, Roche Diagnostics), followed by sonication and centrifugation. The supernatants (soluble protein fractions) were collected, total protein concentration was determined using the BCA method (Pierce) and then stored at −80° C. […] Pellets corresponding to insoluble protein fractions were resuspended in 100 μL of Laemmli buffer 2× and boiled for 10 min. Insoluble proteins were then quantified, and 100 μg were loaded in a filter trap assay apparatus and transferred to a nitrocellulose membrane (0.45 μm pore) that was incubated overnight with rabbit anti-MJD antibody (1:5000) at 4° C. Bound primary antibodies were visualized by incubation with a peroxidase-conjugated anti-mouse or anti-rabbit secondary antibody (1:10000; Jackson Immuno Research Laboratories) followed by treatment with the ECL-plus reagent (Western Lighting, PerkinElmer) and exposure to autoradiography films. Band intensity was quantified by densitometry using ImageJ.
(§3) Five hours after the final injection on day 10, mice were sacrificed and brains collected for total protein and RNA extraction from different regions: brainstem, cerebellum, cervical spinal cord, and forebrain.

[3] = test system: endogenous mouse Atxn3; assay: as above; assay type: in vivo; settings: 15 mg/kg IP daily for 10 days
Method: as §1, §2, §3

[4] = test system: ATXN3; assay: Subchronic treatment of Q84 mice, anti-ATXN3 immunofluorescence of ventral pons; assay type: in vivo, human
Method: as §1
Brains from mice perfused with 4% PFA were post-fixed overnight at 4° C. in the same fixative, immersed in 30% sucrose/PBS, and sectioned on a sledge microtome (SM200R Leica Biosystems). […] Neuronal nuclear ATXN3 was quantified using ImageJ by quantifying ATXN3 fluorescence in DAPI and NeuN double-positive nuclei. Corrected total cell fluorescence (CTCF) was obtained by measuring ATXN3 fluorescence in 15 nuclei/image field/mouse and normalizing for nuclei area using the equation CTCF=fluorescence intensity−(nucleus area×mean fluorescence of background readings). ATXN3 positive puncta were quantified using ImageJ by assessing particle fluorescence (applying the triangle threshold) in the same image fields described above.

[5] = test system: Rad23b; assay: Subchronic treatment of Q84 mice, Western blot of brainstem soluble fractions; assay type: in vivo, mouse; settings: Q84 mice vs vehicle
Method: as §1, §2

[6] = test system: Hsp40; assay: as above; assay type: in vivo, mouse
Method: as §1, §2

[7] = test system: Hsp70; assay: as above; assay type: in vivo, mouse
Method: as §1, §2

[8] = test system: Hsf1; assay: as above; assay type: in vivo, mouse
Method: as §1, §2

[9] = test system: MJD/SCA3 flies; assay: Survival of MJD/SCA3 flies; assay type: in vivo, Drosophila; settings: 50 μM in food from eclosion
Method: Drosophila stocks were reared on standard cornmeal media at 25° C. in diurnal environments with ˜60% humidity. […] Full-length human ATXN3 cDNA with 77 CAG was cloned into pWalium10-moe (Perrimon Lab, Harvard Medical School). Flies that carry ATXN3 in site attP2 or the empty vector control into the same site as the most isogenic control line were generated. Injections were done into y[1], w[*]; +; attP2 (landing site). […] Adult flies of the following genotypes, w[*]; sqh-Gal4/+; UAS-ataxin-3Q77/+ or w[*], sqh-Gal4/+; Empty-Vector-Control/+ were switched from standard media to instant media as soon as they eclosed from their pupal case (day 0), and thereafter maintained on instant media with vehicle compound. Media was switched every three days, and death was noted daily.
At least 200 flies in groups of 9 to 17 flies per treatment vial were monitored.

[10] = Pharmacokinetics after intraperitoneal injection; assay type: in vivo, mouse; settings: 15 mg/kg IP, mice
[11] = mouse, in vivo; cited from earlier work

O=C1CCc2ccc(OCCCCN3CCN(c4cccc(Cl)c4Cl)CC3)cc2N1 [aripiprazole]
HMW or other species of ATXN3Q55 [1]: no differences
HMW ATXN3 species, of levels in vehicle-treated mice ([2]; brainstem, Q84 mice): 44%
levels of monomeric human ATXN3 ([2]; soluble lysates): trend toward decreased levels
levels of endogenous mouse Atxn3 [3]: trend toward decreased levels
ATXN3 nuclear levels vs vehicle ([4]; neuronal nuclei of ventral pons): no differences
total ATXN3 fluorescence vs control mice ([4]; pons): non-significant trend towards a decrease
levels of Rad23b [5]: trend toward decreased levels
levels of Hsp40 [6]: No differences
levels of Hsp70 compared with vehicle-treated mice [7]: 62%
Heat shock transcription factor (Hsf1) level [8]: increased
increased mean survival compared with vehicle-treated flies [9]: 1.3 days
mean survival ([9]; vehicle-treated 7.7±0.343): 9.0 ± 0.367 days
time of maximal concentration in the brain post-injection [10]: 30 min
maximum tolerable dose [11]: 15 mg/kg
